Data taken from patent publication US12590126B2, “Compounds for selective disruption of protein-protein interactions” (SyntheX, Inc., priority 2017, dated 2026).
Where a SMILES comes first, the peptide text is derived from it. Where no end group is shown, it is not given here. [ ]: non-standard residue; d: D form. The star is where a group is joined. C6_5FAM = 5-carboxyfluorescein (5FAM) label attached via a 6-carbon linker to the lysine epsilon amino group, O=C(NCCCCCC(=O)*)c1ccc2c(c1)C(=O)OC21c2ccc(O)cc2Oc2cc(O)ccc21; Dansyl = CN(C)c1cccc2c(S(=O)(=O)*)cccc12; 2Nal = N[C@@H](Cc1ccc2ccccc2c1)C(=O)O; dNle = CCCC[C@@H](N)C(=O)O; Sar = CNCC(=O)O

The compounds below were run on SSP-25 cells (assay: xCELLigence cell death assay in SSP-25 cells (cellular assay for RAD51 inhibition)). Conditions: concentration gradient added at 20 hour mark, only values with R^>0.85 shown.
Format: cell-based
Description: The efficacy of the peptides described herein was assessed by their ability to cause death in SSP-25 cells, which have amplification of RAD51 and are dependent on its activity.
First, 5,000 SSP25 cells were plated, and adherence and growth was measured for 20 hours using live measurements of current impedance through the plate using the xCELLigence™ instrument. At the 20 hour mark, a concentration gradient of each compound or a PBS control was added to the SSP-25 cells, which were cultured in […] RMPI media with 10% FBS. […] Only values with confidence and R^>0.85 are shown.

Compound | IC50 [µM]
Ac-l{d-norLeucine}rGvrlrvGlrkrrrrrrr-NH2 (Ac-[dL][dNle][dR]G[dV][dR][dL][dR][dV]G[dL][dR][dK][dR][dR][dR][dR][dR][dR][dR]-NH2; SMILES CCCC[C@@H](NC(=O)[C@@H](CC(C)C)NC(C)=O)C(=O)N[C@H](CCCNC(=N)N)C(=O)NCC(=O)N[C@@H](C(=O)N[C@H](CCCNC(=N)N)C(=O)N[C@H](CC(C)C)C(=O)N[C@H](CCCNC(=N)N)C(=O)N[C@@H](C(=O)NCC(=O)N[C@H](CC(C)C)C(=O)N[C@H](CCCNC(=N)N)C(=O)N[C@H](CCCCN)C(=O)N[C@H](CCCNC(=N)N)C(=O)N[C@H](CCCNC(=N)N)C(=O)N[C@H](CCCNC(=N)N)C(=O)N[C@H](CCCNC(=N)N)C(=O)N[C@H](CCCNC(=N)N)C(=O)N[C@H](CCCNC(=N)N)C(=O)N[C@H](CCCNC(=N)N)C(N)=O)C(C)C)C(C)C) [Compound 10] | 13
Ac-lmrsvrlrvGlrr-NH2 (Ac-[dL][dM][dR][dS][dV][dR][dL][dR][dV]G[dL][dR][dR]-NH2; SMILES CSCC[C@@H](NC(=O)[C@@H](CC(C)C)NC(C)=O)C(=O)N[C@H](CCCNC(=N)N)C(=O)N[C@H](CO)C(=O)N[C@@H](C(=O)N[C@H](CCCNC(=N)N)C(=O)N[C@H](CC(C)C)C(=O)N[C@H](CCCNC(=N)N)C(=O)N[C@@H](C(=O)NCC(=O)N[C@H](CC(C)C)C(=O)N[C@H](CCCNC(=N)N)C(=O)N[C@H](CCCNC(=N)N)C(N)=O)C(C)C)C(C)C) [Compound 4] | 67
Ac-lvrsvGlrrrrrrrr-NH2 (Ac-[dL][dV][dR][dS][dV]G[dL][dR][dR][dR][dR][dR][dR][dR][dR]-NH2; SMILES CC(=O)N[C@H](CC(C)C)C(=O)N[C@@H](C(=O)N[C@H](CCCNC(=N)N)C(=O)N[C@H](CO)C(=O)N[C@@H](C(=O)NCC(=O)N[C@H](CC(C)C)C(=O)N[C@H](CCCNC(=N)N)C(=O)N[C@H](CCCNC(=N)N)C(=O)N[C@H](CCCNC(=N)N)C(=O)N[C@H](CCCNC(=N)N)C(=O)N[C@H](CCCNC(=N)N)C(=O)N[C@H](CCCNC(=N)N)C(=O)N[C@H](CCCNC(=N)N)C(=O)N[C@H](CCCNC(=N)N)C(N)=O)C(C)C)C(C)C) [Compound 5] | 35
Ac-rrrrrraGphlrkvralrslGlrlaq-NH2 (Ac-[dR][dR][dR][dR][dR][dR][dA]G[dP][dH][dL][dR][dK][dV][dR][dA][dL][dR][dS][dL]G[dL][dR][dL][dA][dQ]-NH2; SMILES CC(=O)N[C@H](CCCNC(=N)N)C(=O)N[C@H](CCCNC(=N)N)C(=O)N[C@H](CCCNC(=N)N)C(=O)N[C@H](CCCNC(=N)N)C(=O)N[C@H](CCCNC(=N)N)C(=O)N[C@H](CCCNC(=N)N)C(=O)N[C@H](C)C(=O)NCC(=O)N1CCC[C@@H]1C(=O)N[C@H](Cc1c[nH]cn1)C(=O)N[C@H](CC(C)C)C(=O)N[C@H](CCCNC(=N)N)C(=O)N[C@H](CCCCN)C(=O)N[C@@H](C(=O)N[C@H](CCCNC(=N)N)C(=O)N[C@H](C)C(=O)N[C@H](CC(C)C)C(=O)N[C@H](CCCNC(=N)N)C(=O)N[C@H](CO)C(=O)N[C@H](CC(C)C)C(=O)NCC(=O)N[C@H](CC(C)C)C(=O)N[C@H](CCCNC(=N)N)C(=O)N[C@H](CC(C)C)C(=O)N[C@H](C)C(=O)N[C@H](CCC(N)=O)C(N)=O)C(C)C) [Compound 6] | 417
Ac-l{d-norLeucine}rsvrlr[d-norLeucine]GlrkrrrrrGΦ-NH2 (Ac-[dL][dNle][dR][dS][dV][dR][dL][dR][dNle]G[dL][dR][dK][dR][dR][dR][dR][dR]G[2Nal]-NH2; SMILES CCCC[C@@H](NC(=O)[C@@H](CCCNC(=N)N)NC(=O)[C@@H](CC(C)C)NC(=O)[C@@H](CCCNC(=N)N)NC(=O)[C@H](NC(=O)[C@@H](CO)NC(=O)[C@@H](CCCNC(=N)N)NC(=O)[C@@H](CCCC)NC(=O)[C@@H](CC(C)C)NC(C)=O)C(C)C)C(=O)NCC(=O)N[C@H](CC(C)C)C(=O)N[C@H](CCCNC(=N)N)C(=O)N[C@H](CCCCN)C(=O)N[C@H](CCCNC(=N)N)C(=O)N[C@H](CCCNC(=N)N)C(=O)N[C@H](CCCNC(=N)N)C(=O)N[C@H](CCCNC(=N)N)C(=O)N[C@H](CCCNC(=N)N)C(=O)NCC(=O)N[C@@H](Cc1ccc2ccccc2c1)C(N)=O) [Compound 16] | 43
Ac-lmrsvrlrvGlrkaG: : : (cFΦR4) (Ac-[dL][dM][dR][dS][dV][dR][dL][dR][dV]G[dL][dR][dK][dA]GF[2Nal]RRRRQ; not fully specified (bridges); printed as Ac-lmrsvrlrvGlrkaG: : : (cFΦR4); also: core joined by ':::' to cyclo(FΦRRRRQ), junction not defined) [Compound 3] | 7.3
Ac-l{d-norLeucine}rsvrlrvGlrkrrrrrrr-NH2 (Ac-[dL][dNle][dR][dS][dV][dR][dL][dR][dV]G[dL][dR][dK][dR][dR][dR][dR][dR][dR][dR]-NH2; SMILES CCCC[C@@H](NC(=O)[C@@H](CC(C)C)NC(C)=O)C(=O)N[C@H](CCCNC(=N)N)C(=O)N[C@H](CO)C(=O)N[C@@H](C(=O)N[C@H](CCCNC(=N)N)C(=O)N[C@H](CC(C)C)C(=O)N[C@H](CCCNC(=N)N)C(=O)N[C@@H](C(=O)NCC(=O)N[C@H](CC(C)C)C(=O)N[C@H](CCCNC(=N)N)C(=O)N[C@H](CCCCN)C(=O)N[C@H](CCCNC(=N)N)C(=O)N[C@H](CCCNC(=N)N)C(=O)N[C@H](CCCNC(=N)N)C(=O)N[C@H](CCCNC(=N)N)C(=O)N[C@H](CCCNC(=N)N)C(=O)N[C@H](CCCNC(=N)N)C(=O)N[C@H](CCCNC(=N)N)C(N)=O)C(C)C)C(C)C) [Compound 9] | 20
Ac-l{d-norLeucine}rGvrlrvGlrkrrrrGy-NH2 (Ac-[dL][dNle][dR]G[dV][dR][dL][dR][dV]G[dL][dR][dK][dR][dR][dR][dR]G[dY]-NH2; SMILES CCCC[C@@H](NC(=O)[C@@H](CC(C)C)NC(C)=O)C(=O)N[C@H](CCCNC(=N)N)C(=O)NCC(=O)N[C@@H](C(=O)N[C@H](CCCNC(=N)N)C(=O)N[C@H](CC(C)C)C(=O)N[C@H](CCCNC(=N)N)C(=O)N[C@@H](C(=O)NCC(=O)N[C@H](CC(C)C)C(=O)N[C@H](CCCNC(=N)N)C(=O)N[C@H](CCCCN)C(=O)N[C@H](CCCNC(=N)N)C(=O)N[C@H](CCCNC(=N)N)C(=O)N[C@H](CCCNC(=N)N)C(=O)N[C@H](CCCNC(=N)N)C(=O)NCC(=O)N[C@H](Cc1ccc(O)cc1)C(N)=O)C(C)C)C(C)C) [Compound 11] | 9
Ac-l{d-norLeucine}rGvrlrvGlrkrrrrrGΦ-NH2 (Ac-[dL][dNle][dR]G[dV][dR][dL][dR][dV]G[dL][dR][dK][dR][dR][dR][dR][dR]G[2Nal]-NH2; SMILES CCCC[C@@H](NC(=O)[C@@H](CC(C)C)NC(C)=O)C(=O)N[C@H](CCCNC(=N)N)C(=O)NCC(=O)N[C@@H](C(=O)N[C@H](CCCNC(=N)N)C(=O)N[C@H](CC(C)C)C(=O)N[C@H](CCCNC(=N)N)C(=O)N[C@@H](C(=O)NCC(=O)N[C@H](CC(C)C)C(=O)N[C@H](CCCNC(=N)N)C(=O)N[C@H](CCCCN)C(=O)N[C@H](CCCNC(=N)N)C(=O)N[C@H](CCCNC(=N)N)C(=O)N[C@H](CCCNC(=N)N)C(=O)N[C@H](CCCNC(=N)N)C(=O)N[C@H](CCCNC(=N)N)C(=O)NCC(=O)N[C@@H](Cc1ccc2ccccc2c1)C(N)=O)C(C)C)C(C)C) [Compound 12] | 17
Ac-lmrsvrlrvGlrkrrrrrrrk(C6_5FAM)-NH2 (Ac-[dL][dM][dR][dS][dV][dR][dL][dR][dV]G[dL][dR][dK][dR][dR][dR][dR][dR][dR][dR][dK](C6_5FAM)-NH2; SMILES CSCC[C@@H](NC(=O)[C@@H](CC(C)C)NC(C)=O)C(=O)N[C@H](CCCNC(=N)N)C(=O)N[C@H](CO)C(=O)N[C@@H](C(=O)N[C@H](CCCNC(=N)N)C(=O)N[C@H](CC(C)C)C(=O)N[C@H](CCCNC(=N)N)C(=O)N[C@@H](C(=O)NCC(=O)N[C@H](CC(C)C)C(=O)N[C@H](CCCNC(=N)N)C(=O)N[C@H](CCCCN)C(=O)N[C@H](CCCNC(=N)N)C(=O)N[C@H](CCCNC(=N)N)C(=O)N[C@H](CCCNC(=N)N)C(=O)N[C@H](CCCNC(=N)N)C(=O)N[C@H](CCCNC(=N)N)C(=O)N[C@H](CCCNC(=N)N)C(=O)N[C@H](CCCNC(=N)N)C(=O)N[C@H](CCCCNC(=O)CCCCCNC(=O)c1ccc2c(c1)C(=O)OC21c2ccc(O)cc2Oc2cc(O)ccc21)C(N)=O)C(C)C)C(C)C) [Compound 13] | 10
Ac-l{d-norLeucine}rsrrlvrGlrkrrrrrGΦ-NH2 [Compound 14] | 3500

The compounds below were run on fresh human RBCs (assay: not given). Conditions: red cells of human, 1 h, 250.
Format: cell-based
Description: To assess the nonspecific lytic properties of each compounds disclosed herein, each mentioned compound was tested for hemolytic properties against fresh human RBCs. Briefly, donor blood was drawn into a K2EDTA anticoagulant tube from multiple O+ donors. The blood was washed 3 times in PBS. RBCs were diluted to 2% in PBS and compounds were added at various concentrations. Samples were incubated at 37 C for 1 hr, then centrifuged at 2200 rpm for 5 min. Supernatants were measured for absorbance at 450 nm or 405 nm. The percentage hemolysis was calculated as lysis relative to 1% Triton X-100 incubation.

Compound | % Hemolysis (250 uM) [%]
CCCC[C@@H](NC(=O)[C@@H](CC(C)C)NC(=O)CN(C)S(=O)(=O)c1cccc2c(N(C)C)cccc12)C(=O)N[C@H](CCCNC(=N)N)C(=O)N[C@H](CO)C(=O)N[C@@H](C(=O)N[C@H](CCCNC(=N)N)C(=O)N[C@H](CC(C)C)C(=O)N[C@H](CCCNC(=N)N)C(=O)N[C@@H](C(=O)NCC(=O)N[C@H](CC(C)C)C(=O)N[C@H](CCCNC(=N)N)C(=O)N[C@H](CCCCN)C(=O)N[C@H](CCCNC(=N)N)C(=O)N[C@H](CCCNC(=N)N)C(=O)N[C@H](CCCNC(=N)N)C(=O)N[C@H](CCCNC(=N)N)C(=O)N[C@H](CCCNC(=N)N)C(N)=O)C(C)C)C(C)C [Compound 19, DANSYL-Sarcosine-l{d-norLeucine}rsvrlrvGlrkrrrrr-NH2] (Dansyl-[Sar][dL][dNle][dR][dS][dV][dR][dL][dR][dV]G[dL][dR][dK][dR][dR][dR][dR][dR]-NH2) | 86
